From patent publication US9616107B2, “Therapy for kidney disease and/or heart failure” (priority 2011, dated 2017)
Like-named read-outs stand apart in the source and are kept apart here. Ends that are not written are not given here.

Assay: Toxicology study of VD in rats: 5-day continuous subcutaneous infusion by Alzet minipumps, plasma VD by radioimmunoassay, clinical observations
Type: in vivo
Conditions: for maximum tolerated dose for prolonged subcutaneous administration: expected; for Cmin: SC infusion 5 days
Procedure: VD was administered to a rat model via a subcutaneous delivery route to assess the toxicity of VD and to determine if a lethal dosing amount of the VD can be reached by subcutaneous administration. As noted above, a maximum tolerated or lethal dosing amount was not observed for canines.
VD-acetate (Bachem lot 2502022) was prepared in the Tris/Glycerin/m-cresol buffer at a concentration of 3 mg/mL or 15 mg/mL. The VD solution was administered continuously by subcutaneous infusion using Alzet® (Durect Corp.) osmotic minipumps (model 2002) over a period of 5 days to 3 study groups, where each study group (Groups 1-3) contained 3 male and 3 female Sprague Dawley rats.
The continuous subcutaneous delivery dose for Group 1 was calibrated to yield an administration of approximately 100 ng/(kg·min) of VD, which is in the range of a dosing regimen useful for clinical use in humans. […] However, an estimated body weight of 250 g was used for all animals (males and females) for reporting pharmacokinetic and toxicological calculations; therefore, the estimated daily dose is reported as 0.144 mg/kg·day (or 100 ng/(kg·min)) for all animals in Group 1, and the total dose delivered to each animal over the 5-day period was 0.180 mg.
The continuous subcutaneous delivery dose for Group 2 was calibrated to yield an administration of approximately 1000 ng/(kg·min) of VD, which is 10-fold higher than for Group 1. Each rat in Group 2 each had two Alzet pumps implanted to have a combined infusion rate was 1.0 μL/hr of the 15 mg/mL VD solution. The resulting actual mean weight-based doses were 1.026 and 1.629 mg/(kg·day) for males and females, respectively. For the pharmacokinetic calculations, an estimated body weight of 280 g was used for all animals (males and females); therefore, the estimated daily dose was reported as 1.29 mg/(kg·day) (or ˜896 ng/(kg·min)) for all animals in Group 2, and the total dose delivered to each animal over the 5 day period was 1.8 mg.
The continuous subcutaneous delivery dose for Group 3 was calibrated to yield an administration of approximately 2000 ng/(kg·min). Each rat each had four Alzet pumps implanted for a combined infusion rate was 2.0 μL/hr of the 15 mg/mL VD solution. The resulting actual mean weight-based doses were 1.870 and 3.303 mg/(kg·day) for males and females, respectively. For pharmacokinetic calculations, an estimated body weight of 300 g was used for all animals (males and females); therefore the estimated daily dose was reported as 2.4 mg/(kg·day) (or (or ˜1667 ng/(kg·min)) for all animals in Group 3, and the total dose delivered to each animal for the 5 day period was 3.6 mg. The dosing for Groups 1-3 is summarized in Table 5.
All animals in Groups 1-3 were observed twice daily for mortality and moribund appearance during the 5-day dosing period and during an at least 16-day pretest period. Clinical examinations were performed daily for all animals following surgery to implant the Alzet pumps. Detailed physical examinations were conducted on all animals approximately weekly during a pretest period of at least 16 days, prior to beginning dosing (Day 0), and on Day 5 prior to euthanasia. Individual body weights were recorded at least weekly during the pretest period, on Day 0 prior to dosing, and on Day 5 prior to euthanasia. Individual food consumption was recorded approximately weekly during the pretest period, on Day 0 prior to dosing, and on Day 5 prior to euthanasia. Blood samples for determination of plasma drug concentration were collected from all animals at approximately 4, 8, and 24 hours after pump implantation on Day 0 and immediately prior to euthanasia on Day 5 (120 hours after the start of dosing). Blood was collected via the retro-orbital sinus from animals anesthetized with isoflurane into chilled tubes containing K3-EDTA. Following the final blood collection, the animals were euthanized and discarded. […]

[1] = female, Sprague Dawley, rat, in vivo, sc, 0.18 mg
[2] = female, Sprague Dawley, rat, in vivo, sc, 1.8 mg
[3] = female, Sprague Dawley, rat, in vivo, sc, 3.6 mg

EVVPPQVLSEPNEEAGAALSPLPEVPPWTGEVSPAQR [VD, Vessel Dilator]
level at 8 h (Sprague Dawley, rat, in vivo, sc, 0.18 mg total dose, male rats N=3, 0.180 mg, 8 hours post-dosing, read-out: Mean concentration of vessel dilator in plasma): 11.9 ng/mL
level at 4 h (Sprague Dawley, rat, in vivo, sc, 0.18 mg, male rats N=3, 0.180 mg, 4 hours post-dosing (from start of infusion), read-out: Mean concentration of vessel dilator in plasma): 17.1 ng/mL
level at 24 h (Sprague Dawley, rat, in vivo, sc, 0.18 mg, male rats N=3, 0.180 mg, 24 hours post-dosing, read-out: Mean concentration of vessel dilator in plasma): 13.3 ng/mL
level at 120 h (Sprague Dawley, rat, in vivo, sc, 0.18 mg, male rats N=3, 0.180 mg, 120 hours post-dosing, all samples, read-out: Mean concentration of vessel dilator in plasma): 78.6 ng/mL
level at 8 h (Sprague Dawley, rat, in vivo, sc, 1.8 mg total dose, male rats N=3, 1.80 mg, 8 hours post-dosing, read-out: Mean concentration of vessel dilator in plasma): 204 ng/mL
level at 4 h (Sprague Dawley, rat, in vivo, sc, 1.8 mg, male rats N=3, 1.80 mg, 4 hours post-dosing, read-out: Mean concentration of vessel dilator in plasma): 62.3 ng/mL
level at 24 h (Sprague Dawley, rat, in vivo, sc, 1.8 mg, male rats N=3, 1.80 mg, 24 hours post-dosing, read-out: Mean concentration of vessel dilator in plasma): 167 ng/mL
level at 120 h (Sprague Dawley, rat, in vivo, sc, 1.8 mg, male rats N=3, 1.80 mg, 120 hours post-dosing, read-out: Mean concentration of vessel dilator in plasma): 214 ng/mL
level at 4 h (Sprague Dawley, rat, in vivo, sc, 3.6 mg, male rats N=3, 3.60 mg, 4 hours post-dosing, read-out: Mean concentration of vessel dilator in plasma): 370 ng/mL
level at 8 h (Sprague Dawley, rat, in vivo, sc, 3.6 mg, male rats N=3, 3.60 mg, 8 hours post-dosing, read-out: Mean concentration of vessel dilator in plasma): 255 ng/mL
level at 24 h (Sprague Dawley, rat, in vivo, sc, 3.6 mg, male rats N=3, 3.60 mg, 24 hours post-dosing, read-out: Mean concentration of vessel dilator in plasma): 168 ng/mL
level at 120 h (Sprague Dawley, rat, in vivo, sc, 3.6 mg, male rats N=3, 3.60 mg, 120 hours post-dosing, read-out: Mean concentration of vessel dilator in plasma): 261 ng/mL
maximum tolerated dose for prolonged subcutaneous administration (female rats): > 2300 ng/kg·min
level at 4 h [1]: 27.5 ng/mL
level at 8 h [1]: 31.6 ng/mL
level at 24 h [1]: 33.2 ng/mL
level at 120 h [1]: 27.1 ng/mL
level at 4 h [2]: 135 ng/mL
level at 8 h [2]: 275 ng/mL
level at 24 h [2]: 320 ng/mL
level at 120 h [2]: 265 ng/mL
level at 4 h [3]: 725 ng/mL
level at 8 h [3]: 454 ng/mL
level at 24 h [3]: 427 ng/mL
level at 120 h [3]: 567 ng/mL
Cmin (male rats, 1.80 mg total dose): 62.3 ng/mL
Cmin (male rats, 3.60 mg total dose): 167 ng/mL
maximum tolerated dose for prolonged subcutaneous administration (male rats): above 1300 ng/kg·min
Tmax (male, Sprague Dawley, rat, in vivo, sc, Tmax): 81.3 h
clinical signs of toxicity (rat, in vivo): None of the animals in Groups 1-3 showed clinical signs of toxicity
plasma concentration up to which no toxicity issues were shown (rat, in vivo, sc): approx. 740 ng/mL
AUCτ of Group 3 females compared to Group 3 males (rats, 3.60 mg, similar when normalized to weight): up to 2 fold
clinical observations, body weight gain, food consumption (rats, 5-day dosing period): no remarkable clinical observations, effects on body weight gain or effects on food consumption
survival (rats, Groups 1-3): all animals survived until euthanasia
